Measurements as given in ChEMBL document CHEMBL1649146, “Contribution of the autolysin AtlA to the bactericidal activity of amoxicillin against Enterococcus faecalis JH2-2” (2009).
Values after ≈ are worked out from the molar mass of the structure shown. Active and inactive are the calls of the source. No cut-off for these calls is given here.

Key:
Enterococcus faecalis [1] = assay: Antibacterial activity against atlA-deficient Enterococcus faecalis JH2-2 infected in New Zealand White rabbit assessed as bacterial count per gram vegetation at 50 mg/kg, im TID for 3 days administered 48 hrs post bacterial challenge (reference value: 8.34+/-1.66 log10 CFU/g); assay type: functional; conditions: route intramuscular
Enterococcus faecalis [2] = assay: Antibacterial activity against atlA-deficient Enterococcus faecalis JH2-2 assessed as decrease in bacterial count at 2 ug/ml by macrodilution method; assay type: functional; parameters: scale not given: the % may be the effect or the level left
Enterococcus faecalis [3] = assay: Antibacterial activity against Enterococcus faecalis JH2-2 assessed as decrease in decrease in bacterial count at 2 ug/ml after 6 hrs by macrodilution method; assay type: functional
Enterococcus faecalis [4] = assay: Ratio of MBC to MIC in Enterococcus faecalis JH2-2; assay type: functional
Enterococcus faecalis [5] = assay: Antibacterial activity against atlA-deficient Enterococcus faecalis JH2-2 assessed as decrease in decrease in bacterial count at 2 ug/ml after 6 hrs by macrodilution method; assay type: functional
Enterococcus faecalis [6] = assay: Antibacterial activity against Enterococcus faecalis JH2-2 assessed as bacterial killing at 2 ug/ml by macrodilution method; assay type: functional, organism-based
Enterococcus faecalis [7] = assay: Antibacterial activity against Enterococcus faecalis JH2-2 by macrodilution method; assay type: functional
Enterococcus faecalis [8] = assay: Antibacterial activity against Enterococcus faecalis JH2-2 infected in New Zealand White rabbit assessed as bacterial count per gram vegetation at 50 mg/kg, im TID for 3 days administered 48 hrs post bacterial challenge (reference value: 9.40+/-0.62 log10 CFU/g); assay type: functional; conditions: route intramuscular
Enterococcus faecalis [9] = assay: Antibacterial activity against atlA-deficient Enterococcus faecalis JH2-2 assessed as bacterial killing at 2 ug/ml by macrodilution method; assay type: functional, organism-based
Enterococcus faecalis [10] = assay: Ratio of MBC to MIC in atlA-deficient Enterococcus faecalis JH2-2; assay type: functional
Enterococcus faecalis [11] = assay: Antibacterial activity against Enterococcus faecalis JH2-2 assessed as decrease in decrease in bacterial count at 2 ug/ml after 24 hrs by macrodilution method; assay type: functional
Enterococcus faecalis [12] = assay: Antibacterial activity against atlA-deficient Enterococcus faecalis JH2-2 assessed as decrease in decrease in bacterial count at 2 ug/ml after 3 hrs by macrodilution method; assay type: functional
Enterococcus faecalis [13] = assay: Antibacterial activity against atlA-deficient Enterococcus faecalis JH2-2 by macrodilution method; assay type: functional
Enterococcus faecalis [14] = assay: Antibacterial activity against atlA-deficient Enterococcus faecalis JH2-2 assessed as decrease in decrease in bacterial count at 2 ug/ml after 24 hrs by macrodilution method; assay type: functional
Enterococcus faecalis [15] = assay: Antibacterial activity against Enterococcus faecalis JH2-2 assessed as decrease in decrease in bacterial count at 2 ug/ml after 3 hrs by macrodilution method; assay type: functional

## CC1(C)S[C@@H]2[C@H](NC(=O)[C@H](N)c3ccc(O)cc3)C(=O)N2[C@H]1C(=O)O [AMOXICILLIN]
Enterococcus faecalis [1]
  log10CFU/g: 8.55
Enterococcus faecalis [2]
  Activity: >=99.9%
Enterococcus faecalis [3]
  log10CFU/ml: 5.59
Enterococcus faecalis [4]
  Ratio: 4
Enterococcus faecalis [5]
  log10CFU/ml: 3.93
Enterococcus faecalis [6]
  Activity: Active
Enterococcus faecalis [7]
  MBC: 2 µg/mL (≈ 5.47 µM)
  MIC: 0.5 µg/mL (≈ 1.37 µM)
Enterococcus faecalis [8]
  log10CFU/g: 7.69
Enterococcus faecalis [9]
  Activity: Active
Enterococcus faecalis [10]
  Ratio: >=32
Enterococcus faecalis [11]
  log10CFU/ml: 7.82
Enterococcus faecalis [12]
  log10CFU/ml: 1.5
Enterococcus faecalis [13]
  MBC: > 1020 µg/mL
  MIC: 1 µg/mL (≈ 2.74 µM)
Enterococcus faecalis [14]
  log10CFU/ml: 6.46
Enterococcus faecalis [15]
  log10CFU/ml: 2.57
